Measurements reported in patent US5482967A, “Condensed heterocyclic compounds, their production and use” (Takeda Chemical Industries, Ltd., priority 1992, dated 1996).

Each compound was assayed against T1, acyl-CoA:cholesterol acyl transferase (ACAT) (Rattus norvegicus, UniProt Q7TQM4) (assay: Inhibitory action against acyl-CoA:cholesterol acyl transferase (ACAT), formation of labeled cholesterol ester, small intestine mucosal microsome fraction). Conditions: 10^-6 M; read-out: ACAT Inhibitory Rate (%).
T1 construct: small intestine mucosal microsome fraction of a 6-week-old male Sprague-Dawley rat; from tissue; host or cells: rat small intestine mucosa, microsome fraction
T1 sequence (Q7TQM4 1-524): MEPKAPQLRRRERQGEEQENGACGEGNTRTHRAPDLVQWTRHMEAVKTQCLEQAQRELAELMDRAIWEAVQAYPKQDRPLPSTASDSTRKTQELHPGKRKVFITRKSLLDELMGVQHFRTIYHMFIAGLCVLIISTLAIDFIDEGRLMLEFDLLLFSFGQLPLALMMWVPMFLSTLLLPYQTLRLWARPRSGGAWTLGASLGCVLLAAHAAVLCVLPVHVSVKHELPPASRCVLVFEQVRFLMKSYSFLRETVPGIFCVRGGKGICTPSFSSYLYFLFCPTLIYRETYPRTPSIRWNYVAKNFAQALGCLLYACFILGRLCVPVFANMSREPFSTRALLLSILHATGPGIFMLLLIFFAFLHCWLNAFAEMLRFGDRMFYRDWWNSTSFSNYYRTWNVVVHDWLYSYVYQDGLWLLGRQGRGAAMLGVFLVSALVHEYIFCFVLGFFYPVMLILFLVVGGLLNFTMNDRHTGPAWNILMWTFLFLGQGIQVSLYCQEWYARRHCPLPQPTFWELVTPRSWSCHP
Assay type: biochemical, male Sprague-Dawley rat
Method: An ACAT enzyme preparation was prepared from a small intestine mucosal microsome fraction of a 6-week-old male Sprague-Dawley rat, previously fasted for 20 hours, in accordance with the method described by Heider et al. in the Journal of Lipid Research, Vol. 24, page 1127 (1982).
ACAT activity was determined by measuring the amount of labeled cholesterol ester produced from [1-^14 C]-oleoyl-CoA and endogenous cholesterol, in accordance with the method of Helgerud et al. [Journal of Lipid Research, Vol. 22, page 271 (1981)].

SMILES	inhibition at 1 µM
CC(C)c1cccc(C(C)C)c1NC(=O)Cc1cnc2ccc(Cl)cc2c1-c1ccccc1 [Example 57, N-[2,6-Bis(1-methylethyl)phenyl]-6-chloro-4-phenyl-3-quinolineacetamide]	99.3%
Cc1cccc(C(C)C)c1NC(=O)C[C@@H]1C(=O)N(C)c2ccc(Cl)cc2[C@H]1c1ccccc1 (relative stereo) [Example 23, 3,4-trans-6-Chloro-1-methyl-N-[2-methyl-6-(1-methylethyl)phenyl]-2-oxo-4-phenyl-1,2,3,4-tetrahydro-3-quinolineacetamide]	99.4%
CCOc1cccc(OCC)c1NC(=O)Cc1c(-c2ccccc2C(F)(F)F)c2cc(Cl)ccc2oc1=O [Example 95, 6-Chloro-N-(2,6-diethoxyphenyl)-2-oxo-4-(2-trifluoromethylphenyl)-2H-1-benzopyran-3-acetamide]	99.1%
CC(C)c1cccc(C(C)C)c1NC(=O)Cc1c(-c2ccccc2)c2cc(Cl)ccc2oc1=O [Example 50, N-[2,6-Bis(1-methylethyl)phenyl]-6-chloro-2-oxo-4-phenyl-2H-1-benzopyran-3-acetamide]	95.7%
Cc1cc(C)c(NC(=O)Cc2c(-c3ccccc3C)c3cc(Cl)ccc3oc2=O)c(C)c1 [Example 87, 6-Chloro-4-(2-methylphenyl)-2-oxo-N-(2,4,6-trimethylphenyl)-2H-1-benzopyran-3-acetamide]	99.3%
Cc1cccc(C(C)C)c1NC(=O)C[C@H]1C(=O)N(C)c2ccc(Cl)cc2[C@H]1c1ccccc1 (relative stereo) [Example 22, 3,4-cis-6-Chloro-1,2,3,4-tetrahydro-1-methyl-N-[2-methyl-6-(1-methylethyl)phenyl]-2-oxo-4-phenyl-3-quinolineacetamide]	97.9%
Cc1cc2c(cc1C)N(C)C[C@@H](C(=O)Nc1c(C(C)C)cccc1C(C)C)[C@@H]2c1ccccc1Cl (relative stereo) [Example 15, 3,4-trans-N-[2,6-Bis(1-methylethyl)phenyl]-4-(2-chlorophenyl)-1,2,3,4-tetrahydro-1,6,7-trimethyl-3-quinolinecarboxamide]	90.2%
CC(C)c1cccc(C(C)C)c1NC(=O)CC1C(=O)N(C)c2ccc(Cl)cc2N1c1ccccc1 (centres unmarked) [Example 42, N-[2,6-Bis(1-methylethyl)phenyl]-6-chloro-1,2,3,4-tetrahydro-1-methyl-2-oxo-4-phenyl-3-quinoxalineacetamide]	96.6%
CC(C)c1cccc(C(C)C)c1NC(=O)C[C@@H]1C(=O)N(C)c2ccc(Cl)cc2[C@H]1c1ccccc1 (relative stereo) [Example 33, 3,4-trans-N-[2,6-Bis(1-methylethyl)phenyl]-6-chloro-1,2,3,4-tetrahydro-1-methyl-2-oxo-4-phenyl-3-quinolineacetamide]	98.9%
Cc1cccc(NC(=O)[C@H]2[C@H](c3ccc(F)cc3)c3ccccc3C(=O)N2C)c1 (relative stereo) [Example 9, 3,4-trans-4-(4-Fluorophenyl)-1,2,3,4-tetrahydro-2-methyl-N-(3-methylphenyl)-1-oxo-3-isoquinolinecarboxamide]	90.3%
O=C(Cc1c(-c2ccccc2)c2cc(Cl)ccc2oc1=O)Nc1ccc(F)cc1F [Example 52, 6-Chloro-N-(2,4-difluorophenyl)-2-oxo-4-phenyl-2H-1-benzopyran-3-acetamide]	90.4%
Cc1cccc(C)c1NC(=O)C[C@@H]1C(=O)N(C)c2ccc(Cl)cc2[C@H]1c1ccccc1 (relative stereo) [Example 29, 3,4-trans-6-Chloro-N-(2,6-dimethylphenyl)-1,2,3,4-tetrahydro-1-methyl-2-oxo-4-phenyl-3-quinolineacetamide]	98.4%
COc1cccc(OC)c1NC(=O)Cc1c(-c2ccccc2)c2cc(Cl)ccc2oc1=O [Example 79, 6-Chloro-N-(2,6-dimethoxyphenyl)-2-oxo-4-phenyl-2H-1-benzopyran-3-acetamide]	99.1%
COc1cc(OC)c(NC(=O)CC2C(=O)N(C)c3ccc(Cl)cc3N2c2ccccc2)c(OC)c1 (centres unmarked) [Example 43, 6-Chloro-1,2,3,4-tetrahydro-1-methyl-2-oxo-4-phenyl-N-(2,4,6-trimethoxyphenyl)-3-quinoxalineacetamide]	98.2%
CC(C)c1cccc(C(C)C)c1NC(=O)CC1C(=O)N(C)c2ccc(Cl)cc2C1(C)c1ccccc1 (centres unmarked) [Example 19, N-[2,6-Bis-(1-methylethyl)phenyl]-6-chloro-1,2,3,4-tetrahydro-1,4-dimethyl-2-oxo-4-phenyl-3-quinolineacetamide]	99.1%

What follows are compounds tested against substance P receptor (Homo sapiens, UniProt P25103) (assay: Radioligand receptor binding inhibitory assay using receptor from human lymphoblast cells (IM-9), 125I-BHSP). Conditions: IM-9 receptor, 25° C., 30 minutes.
Procedure, shortened: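 IM-9 lymphoblast membranes (suspended at 1.5 mg/ml protein) were incubated with 125I-BHSP (0.46 KBq) at 25 °C for 30 min in 50 mM Tris-HCl pH 7.4 with BSA, protease inhibitors and 3 mM MnCl2. Nonspecific binding was defined with 2×10^-6 M substance P. Bound radioactivity was collected on PEI-treated GF/B filters and gamma-counted.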

Sequence of substance P receptor (P25103 whole entry): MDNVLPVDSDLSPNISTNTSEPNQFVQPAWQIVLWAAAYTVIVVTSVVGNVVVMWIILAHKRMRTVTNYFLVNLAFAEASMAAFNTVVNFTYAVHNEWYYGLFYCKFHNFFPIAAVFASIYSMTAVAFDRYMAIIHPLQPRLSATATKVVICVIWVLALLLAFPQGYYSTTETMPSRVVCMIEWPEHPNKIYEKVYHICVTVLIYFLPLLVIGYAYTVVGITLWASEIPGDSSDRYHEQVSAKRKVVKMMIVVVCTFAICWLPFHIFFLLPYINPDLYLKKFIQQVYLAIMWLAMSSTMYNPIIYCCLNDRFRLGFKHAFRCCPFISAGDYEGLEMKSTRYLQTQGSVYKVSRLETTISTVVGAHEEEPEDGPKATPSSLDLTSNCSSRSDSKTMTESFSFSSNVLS

SMILES	IC50
COc1ccc(CNC(=O)c2c(-c3ccccc3)c3cc(C)c(C)cc3c(=O)n2C)cc1 [Example 109, 1,2-Dihydro-N-(4-methoxybenzyl)-2,6,7-trimethyl-1-oxo-4-phenyl-3-isoquinolinecarboxamide]	50 nM
COc1ccccc1CCOCc1c(-c2ccccc2)c2cc(C)c(C)cc2c(=O)n1C [Example 207, 1,2-Dihydro-2,6,7-trimethyl-1-oxo-4-phenyl-3-isoquinolinemethyl 2-(2-methoxyphenyl)ethyl ether]	110 nM
CN(Cc1cc(C(F)(F)F)cc(C(F)(F)F)c1)C(=O)[C@@H]1OC(=O)c2ccccc2[C@@H]1c1ccccc1 (relative stereo) [Example 281, 3,4-cis-N-[3,5-Bis(trifluoromethyl)benzyl]-3,4-dihydro-N-methyl-1-oxo-4-phenyl-1H-2-benzopyran-3-carboxamide]	36 nM
Cc1ccccc1-c1c(C(=O)NCc2cc(C(F)(F)F)cc(C(F)(F)F)c2)n(C)c(=O)c2ccccc12 [Example 101, N-[3,5-Bis(trifluoromethyl)benzyl]-1,2-dihydro-2-methyl-4-(2-methylphenyl)-1-oxo-3-isoquinolinecarboxamide]	2.5 nM
CN(Cc1cc(C(F)(F)F)cc(C(F)(F)F)c1)C(=O)c1c(-c2ccccc2)c2ccccc2c(=O)n1C [Example 157, N-[3,5-Bis(trifluoromethyl)benzyl]-1,2-dihydro-N,2-dimethyl-1-oxo-4-phenyl-3-isoquinolinecarboxamide]	1.2 nM
CNc1nc(C(=O)N(C)Cc2cc(C(F)(F)F)cc(C(F)(F)F)c2)c(-c2ccccc2)c2ccccc12 [Example 278, N-[3,5-Bis(trifluoromethyl)benzyl]-N-methyl-1-methylamino-4-phenyl-3-isoquinolinecarboxamide]	10 nM
CN(Cc1cc(C(F)(F)F)cc(C(F)(F)F)c1)C(=O)c1ncc2ccccc2c1-c1ccccc1 [Example 276, N-[3,5-Bis(trifluoromethyl)benzyl]-N-methyl-4-phenyl-3-isoquinolinecarboxamide]	3 nM
Cc1ccccc1-c1c(C[S+]([O-])Cc2cc(C(F)(F)F)cc(C(F)(F)F)c2)n(C)c(=O)c2ccccc12 (centres unmarked) [Example 218, 3,5-Bis(trifluoromethyl)benzyl 1,2-dihydro-2-methyl-4-(2-methylphenyl)-1-oxo-3-isoquinolinemethyl sulfoxide]	23 nM
CN(Cc1cc(C(F)(F)F)cc(C(F)(F)F)c1)C(=O)c1oc(=O)c2ccccc2c1-c1ccc(F)cc1 [Example 246, N-[3,5-Bis(trifluoromethyl)benzyl]-4-(4-fluorophenyl)-N-methyl-1-oxo-1H-2-benzopyran-3-carboxamide]	0.61 nM
O=C(NCc1cc(C(F)(F)F)cc(C(F)(F)F)c1)c1oc(=O)c2ccccc2c1-c1ccc(F)cc1 [Example 245, N-[3,5-Bis(trifluoromethyl)benzyl]-4-(4-fluorophenyl)-1-oxo-1H-2-benzopyran-3-carboxamide]	59 nM
COc1ccccc1-c1c(C(=O)N(C)Cc2cc(C(F)(F)F)cc(C(F)(F)F)c2)c(=O)oc2ccccc12 [Example 255, N-[3,5-Bis(trifluoromethyl)benzyl]-4-(2-methoxyphenyl)-N-methyl-2-oxo-2H-1-benzopyran-3-carboxamide]	1.3 nM
COc1ccccc1CNC(=O)c1c(-c2ccccc2)c2cc(C)c(C)cc2c(=O)n1C [Example 110, 1,2-Dihydro-N-(2-methoxybenzyl)-2,6,7-trimethyl-1-oxo-4-phenyl-3-isoquinolinecarboxamide]	90 nM
CSc1nc2ccccc2c(-c2ccccc2)c1C(=O)N(C)Cc1cc(C(F)(F)F)cc(C(F)(F)F)c1 [Example 272, N-[3,5-Bis(trifluoromethyl)benzyl]-N-methyl-2-methylthio-4-phenyl-3-quinolinecarboxamide]	23 nM
Cc1cc(C)cc(CNCc2c(-c3ccccc3)c3cc(C)c(C)cc3c(=O)n2C)c1 [Example 191, N-(3,5-Dimethylbenzyl)-1,2-dihydro-2,6,7-trimethyl-1-oxo-4-phenyl-3-isoquinolinemethylamine]	28 nM
